From PubChem BioAssay AID1963827 (Molecular Pharmacology Branch, DTP, NCI, 2024)

Tested on: 994946-033-R-J1-PDC complex spheroid viability
Assay: Anticancer human tumor 994946-033-R-J1-PDC patient-derived melanoma cell line growth inhibition [POLQ]
Settings: for IC50: curve of first compound; for viability, T/C: stronger effect = lower value
How it was run: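 Complex spheroid viability model combining PDC tumour cells with endothelial (HUVEC) and MSC stromal cells. Novobiocin, ART-558 or RP6685 were tested singly and in combination with standard and investigational anticancer drugs. Each was titrated in half-log steps from near clinical Cmax, or from 10 microM where Cmax was unknown.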

[1] = second compound 0.0316 µM, first compound 0.0316 µM
[2] = second compound 0.0316 µM, first compound 0.1 µM
[3] = second compound 0.0316 µM, first compound 0.316 µM
[4] = second compound 0.0316 µM, first compound 1 µM
[5] = second compound 0.0316 µM, first compound 3.16 µM
[6] = second compound 0.0316 µM, first compound 10 µM
[7] = second compound 0.1 µM, first compound 0.0316 µM
[8] = second compound 0.1 µM, first compound 0.1 µM
[9] = second compound 0.1 µM, first compound 0.316 µM
[10] = second compound 0.1 µM, first compound 1 µM
[11] = second compound 0.1 µM, first compound 3.16 µM
[12] = second compound 0.1 µM, first compound 10 µM
[13] = second compound 0.316 µM, first compound 0.0316 µM
[14] = second compound 0.316 µM, first compound 0.1 µM
[15] = second compound 0.316 µM, first compound 0.316 µM
[16] = second compound 0.316 µM, first compound 1 µM
[17] = second compound 0.316 µM, first compound 3.16 µM
[18] = second compound 0.316 µM, first compound 10 µM
[19] = second compound 1 µM, first compound 0.0316 µM
[20] = second compound 1 µM, first compound 0.1 µM
[21] = second compound 1 µM, first compound 0.316 µM
[22] = second compound 1 µM, first compound 1 µM
[23] = second compound 1 µM, first compound 3.16 µM
[24] = second compound 1 µM, first compound 10 µM
[25] = second compound 3.16 µM, first compound 0.0316 µM
[26] = second compound 3.16 µM, first compound 0.1 µM
[27] = second compound 3.16 µM, first compound 0.316 µM
[28] = second compound 3.16 µM, first compound 1 µM
[29] = second compound 3.16 µM, first compound 3.16 µM
[30] = second compound 3.16 µM, first compound 10 µM
[31] = second compound 10 µM, first compound 0.0316 µM
[32] = second compound 10 µM, first compound 0.1 µM
[33] = second compound 10 µM, first compound 0.316 µM
[34] = second compound 10 µM, first compound 1 µM
[35] = second compound 10 µM, first compound 3.16 µM
[36] = second compound 10 µM, first compound 10 µM
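Also: spheroids exposed to drugs for 7 days.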
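For viability, T/C in this document: 100% = DMSO vehicle treated spheroids.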

SMILES: CC1COCCN1c1cc(C2(S(C)(=N)=O)CC2)nc(-c2ccnc3[nH]ccc23)n1 (centres undefined) + Nc1ccc(C#CCN(C(=O)Cc2ncc(C(F)(F)F)cc2C(F)(F)F)c2ccc(F)cc2)nn1
- IC50 (second compound 0.0316 µM): 2.25 µM
- IC50 (second compound 0.1 µM): 5.7 µM
- IC50 (second compound 0.316 µM): 2 µM
- IC50 (second compound 1 µM): 2.54 µM
- IC50 (second compound 3.16 µM): 5.12 µM
- IC50 (second compound 10 µM): > 10 µM
- viability, T/C [1]: 91.6%
- viability, T/C [2]: 93%
- viability, T/C [3]: 76.2%
- viability, T/C [4]: 74.6%
- viability, T/C [5]: 37.4%
- viability, T/C [6]: 42.1%
- viability, T/C [7]: 127%
- viability, T/C [8]: 135%
- viability, T/C [9]: 95%
- viability, T/C [10]: 72.4%
- viability, T/C [11]: 68.5%
- viability, T/C [12]: 37.9%
- viability, T/C [13]: 104%
- viability, T/C [14]: 86.5%
- viability, T/C [15]: 109%
- viability, T/C [16]: 59.4%
- viability, T/C [17]: 47.9%
- viability, T/C [18]: 39.5%
- viability, T/C [19]: 124%
- viability, T/C [20]: 127%
- viability, T/C [21]: 90.3%
- viability, T/C [22]: 63%
- viability, T/C [23]: 51.3%
- viability, T/C [24]: 40%
- viability, T/C [25]: 113%
- viability, T/C [26]: 110%
- viability, T/C [27]: 113%
- viability, T/C [28]: 85%
- viability, T/C [29]: 70.3%
- viability, T/C [30]: 25.3%
- viability, T/C [31]: 127%
- viability, T/C [32]: 102%
- viability, T/C [33]: 108%
- viability, T/C [34]: 71.2%
- viability, T/C [35]: 67.6%
- viability, T/C [36]: 49.9%

SMILES: CC(C)n1c(=O)n(C)c2cnc3cc(F)c(-c4ccc(OCCCN5CCCCC5)nc4)cc3c21 + Nc1ccc(C#CCN(C(=O)Cc2ncc(C(F)(F)F)cc2C(F)(F)F)c2ccc(F)cc2)nn1
- IC50 (second compound 0.0316 µM): > 10 µM
- IC50 (second compound 0.1 µM): > 10 µM
- IC50 (second compound 0.316 µM): > 10 µM
- IC50 (second compound 1 µM): 8.97 µM
- IC50 (second compound 3.16 µM): 8.25 µM
- IC50 (second compound 10 µM): > 10 µM
- viability, T/C [1]: 82.2%
- viability, T/C [2]: 103%
- viability, T/C [3]: 80.6%
- viability, T/C [4]: 98.5%
- viability, T/C [5]: 83.5%
- viability, T/C [6]: 66.4%
- viability, T/C [7]: 113%
- viability, T/C [8]: 95.3%
- viability, T/C [9]: 52.7%
- viability, T/C [10]: 84.7%
- viability, T/C [11]: 77.5%
- viability, T/C [12]: 67.5%
- viability, T/C [13]: 88.9%
- viability, T/C [14]: 80.9%
- viability, T/C [15]: 94.7%
- viability, T/C [16]: 101%
- viability, T/C [17]: 68.9%
- viability, T/C [18]: 59.6%
- viability, T/C [19]: 76.5%
- viability, T/C [20]: 103%
- viability, T/C [21]: 98%
- viability, T/C [22]: 88.8%
- viability, T/C [23]: 93.6%
- viability, T/C [24]: 45.6%
- viability, T/C [25]: 96.6%
- viability, T/C [26]: 97.7%
- viability, T/C [27]: 97.6%
- viability, T/C [28]: 115%
- viability, T/C [29]: 85%
- viability, T/C [30]: 43%
- viability, T/C [31]: 103%
- viability, T/C [32]: 67.7%
- viability, T/C [33]: 74.4%
- viability, T/C [34]: 82%
- viability, T/C [35]: 87.9%
- viability, T/C [36]: 70.8%
